Reference: US11672265B2, “Egg replacement containing euglena-derived components” (NOBLEGEN, INC., priority 2019, dated 2023)
Read-outs that look alike come from different tables or passages of the source.

Legend:
[1] = test system: microbial growth in non-heat treated biomass; format: cell-based, yeast, mold, bacteria; conditions: refrigerator (4° C.) 5 days, CP 1000 ppm, SB + PS 1000 ppm each, BV 0.25% (w/w)
Description: A biomass stored in the refrigerator at harvested pH (pH 2.75) for 2 days after harvest was chosen for microbial analysis. Four different pH conditions were used for non-heat treated biomass storage, pH 3, 4.5, 5 and 7. Three different antimicrobials (see Table 19 for the names and usage levels) were added to biomass at each pH selected. Control without any antimicrobial agents were also stored at different selected pHs. All the biomass samples were stored in a 4° C. refrigerator for 5 days and a TSA plate assay was done to see the presence of any microbes at the 5 day mark.
Samples without any microbial growth were considered for further storage study. After 16 days of storage, a TSA plating was done on all the heat treated biomass and non-heated biomass with SB+PS at pH 3, 4.5 and 5.

[2] = test system: microbes in fresh biomass; assay: Treatment of fresh biomass with nisin, TSA plates; format: cell-based, bacteria and yeast
Description: Method: Obtained fresh biomass and was washed 1 time with 2.5 times water. The biomass was diluted to 10% (solid content-10.36 w/w %, initial pH was pH 3.35 and the pH was adjusted to 7.2 using 2.5 M NaOH. […] Similarly, about the same amount of biomass without Nisin was also left at both conditions.

Row | Compound | Microbial growth observed in non-heat treated biomass with antimicrobials ([1]; pH 3) | Microbial growth observed in non-heat treated biomass with antimicrobials ([1]; pH 4.5) | Presence of microbes in biomass treated with nisin ([2]; 70 ppm nisin, biomass pH 7.2, room temperature or 4° C., up to 24 hours) | Prevention of growth of microorganisms in fresh biomass or wet protein concentrate ([2]; 75 ppm of Nisin (conclusion))
1 | CCC(=O)[O-].CCC(=O)[O-].[Ca+2] [CP, Calcium propionate] | yeast | yeast | – | –
2 | nisin | – | – | Presence of microbes were found at all storage conditions irrespective of the presence of nisin or storage time | will not be able to prevent the growth of microorganisms
